Measured values reported in patent publication US20020028945A1, “Heterocyclo substituted hydroxamic acid derivatives as cyclooxygenase-2 and 5-lipoxygenase inhibitors” (priority 1996, published 2002).

Legend:
5-lipoxygenase (5-LO) = biological target: T1, 5-lipoxygenase (5-LO) (Homo sapiens, UniProt P09917); experiment: 5-Lipoxygenase activity: calcium ionophore-induced LTB4 production in human whole blood; assay type: cell-based; settings: A-23187 20 μg/ml, LTB4 by ELISA, mean IC50
T1 construct: Leukotriene B4 (LTB4) production in human whole blood; from tissue; host or cells: human whole blood (healthy donors, heparinized)
T1 sequence (P09917 1-674): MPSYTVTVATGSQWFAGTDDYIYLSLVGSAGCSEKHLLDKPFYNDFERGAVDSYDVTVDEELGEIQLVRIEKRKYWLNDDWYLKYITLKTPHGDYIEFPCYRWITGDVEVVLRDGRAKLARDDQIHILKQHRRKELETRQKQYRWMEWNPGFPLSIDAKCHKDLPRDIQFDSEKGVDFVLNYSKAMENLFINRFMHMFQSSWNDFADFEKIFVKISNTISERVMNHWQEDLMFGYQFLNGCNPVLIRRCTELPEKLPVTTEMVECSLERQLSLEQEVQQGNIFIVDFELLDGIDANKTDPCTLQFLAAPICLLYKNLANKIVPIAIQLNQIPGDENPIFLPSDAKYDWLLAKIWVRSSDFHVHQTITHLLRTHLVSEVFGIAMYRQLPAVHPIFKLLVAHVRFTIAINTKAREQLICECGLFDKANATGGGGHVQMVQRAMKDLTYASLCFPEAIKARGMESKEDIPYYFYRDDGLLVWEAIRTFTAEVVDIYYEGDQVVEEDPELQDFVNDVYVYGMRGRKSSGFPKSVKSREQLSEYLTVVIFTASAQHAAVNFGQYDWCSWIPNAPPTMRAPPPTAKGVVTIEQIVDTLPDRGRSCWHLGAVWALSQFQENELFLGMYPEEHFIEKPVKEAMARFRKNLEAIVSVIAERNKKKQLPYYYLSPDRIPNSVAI
Description: Assay for 5-Lipoxygenase activity
The 5-lipoxygenase (5-LO) activity of the compounds were determined by the calcium ionophore-induced Leukotriene B4 (LTB4) production in human whole blood. Venous blood was collected from healthy human donors using heparin as an anti-coagulant. Human blood samples (0.2 ml of a 1:4 dilution in RPMI 1640 medium) were incubated in 96-well culture plates for 15 minutes at 37° C. with test compounds dissolved in ethanol (EtOH; final concentration <1%), or vehicle. Typically 7 concentrations of test compounds were examined in duplicate. A-23187 [Sigma] was added to the blood to a final concentration of 20 μg/ml, and the mixtures were incubated for 10 minutes at 37° C. The reaction was stopped by placing the samples on ice. The samples were then centrifuged at 800×g at 4° C. for 10 minutes to pellet the cells, and the supernatants were recovered for quantitation of LTB4 by ELISA (Cayman Chemical Co.; sensitivity 3 pg/ml). IC50's were estimated from a four parameter logistic model with two parameters fixed, the minimum (0% inhibition) and maximum (100% inhibition). The IC50 value is the concentration that produces 50% inhibition between the fixed values of the minimum and maximum. Data is reported as the mean IC50 for each compound.

COX-2 = biological target: T2, COX-2 (UniProt P35354); experiment: COX-2 activity in vitro (PGE2 ELISA, recombinant enzyme); assay type: biochemical, human or murine; settings: recombinant COX-2, arachidonic acid 10 μM
T2 sequence (P35354 1-604): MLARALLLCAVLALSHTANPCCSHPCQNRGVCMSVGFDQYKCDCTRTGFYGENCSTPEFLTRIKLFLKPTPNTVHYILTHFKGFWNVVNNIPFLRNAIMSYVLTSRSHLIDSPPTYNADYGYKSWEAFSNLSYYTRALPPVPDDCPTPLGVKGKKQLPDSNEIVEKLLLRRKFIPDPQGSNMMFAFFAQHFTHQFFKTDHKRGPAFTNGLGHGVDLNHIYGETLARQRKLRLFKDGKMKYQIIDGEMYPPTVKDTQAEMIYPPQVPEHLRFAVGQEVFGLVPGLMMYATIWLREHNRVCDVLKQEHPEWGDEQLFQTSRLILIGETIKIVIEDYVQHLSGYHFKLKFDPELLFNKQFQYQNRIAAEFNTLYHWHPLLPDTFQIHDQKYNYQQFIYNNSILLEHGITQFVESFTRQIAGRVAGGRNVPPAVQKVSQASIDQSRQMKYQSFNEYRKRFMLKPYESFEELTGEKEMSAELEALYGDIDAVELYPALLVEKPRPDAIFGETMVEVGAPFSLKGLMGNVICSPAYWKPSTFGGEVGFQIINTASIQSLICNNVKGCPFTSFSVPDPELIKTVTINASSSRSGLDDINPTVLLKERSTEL
Description: Evaluation of COX-1 and COX-2 activity in vitro
The COX-2 inhibition activity of the compounds of this invention illustrated in the Examples was determined by the following methods. a. Preparation of recombinant COX baculoviruses
(§1) Recombinant COX-1 and COX-2 were prepared as described by Gierse et al, [J. Biochem., 305, 479-84 (1995)]. A 2.0 kb fragment containing the coding region of either human or murine COX-1 or human or murine COX-2 was cloned into a BamH1 site of the baculovirus tra nsfer vector pVL1393 (Invitrogen) to generate the baculovirus transfer vectors for COX-1 and coX-2 in a manner similar to the method of D. R. O'Reilly et al (Baculovirus Expression Vectors: A Laboratory Manual (1992)). Recombinant baculoviruses were isolated by transfecting 4 μg of baculovirus transfer vector DNA into SF9 insect cells (2×10^8) along with 200 ng of linearized baculovirus plasmid DNA by the calcium phosphate method. See M. D. Summers and G. E. Smith, A Manual of Methods for Baculovirus Vectors and Insect Cell Culture Procedures, Texas Agric. Exp. Station Bull. 1555 (1987). Recombinant viruses were purified by three rounds of plaque purification and high titer (10^7-10^8 pfu/ml) stocks of virus were prepared. For large scale production, SF9 insect cells were infected in 10 liter fermentors (0.5×10^6/ml) with the recombinant baculovirus stock such that the multiplicity of infection was 0.1. After 72 hours the cells were centrifuged and the cell pellet homogenized in Tris/Sucrose (50 mM: 25%, pH 8.0) containing 1% 3-[(3-cholamidopropyl)dimethylammonio]-1-propanesulfonate (CHAPS). The homogenate was centrifuged at 10,000×G for 30 minutes, and the resultant supernatant was stored at −80° C. before being assayed for COX activity. […]
(§2) b. Assay for COX-1 and COX-2 activitv
COX activity was assayed as PGE2 formed/μg protein/time using an ELISA to detect the prostaglandin released. […] The PGE2 formed was measured by standard ELISA technology (Cayman Chemical).

COX-1 = COX-1 (UniProt P23219); experiment: COX-1 activity in vitro (PGE2 ELISA, recombinant enzyme); assay type: biochemical, human or murine; settings: recombinant COX-1, arachidonic acid 10 μM
Description: Evaluation of COX-1 and COX-2 activity in vitro a. Preparation of recombinant COX baculoviruses
as §1, §2
COX activity was assayed as PGE2 formed/μg protein/time using an ELISA to detect the prostaglandin released. CHAPS-solubilized insect cell membranes containing the appropriate COX enzyme were incubated in a potassium phosphate buffer (50 mM, pH 8.0) containing epinephrine, phenol, and heme with the addition of arachidonic acid (10 μM). […] The PGE2 formed was measured by standard ELISA technology (Cayman Chemical).

carrageenan foot edema = experiment: Rat carrageenan foot pad edema test; assay type: in vivo; settings: male Sprague-Dawley rats, oral, 3 h after carrageenan
Description: Rat Carrageenan Foot Pad Edema Test
The carrageenan foot edema test was performed with materials, reagents and procedures essentially as described by Winter, et al., (Proc. Soc. Exp. Biol. Med., 111, 544 (1962)). Male Sprague-Dawley rats were selected in each group so that the average body weight was as close as possible. Rats were fasted with free access to water for over sixteen hours prior to the test. The rats were dosed orally (1 mL) with compounds suspended in vehicle containing 0.5% methylcellulose and 0.025% surfactant, or with vehicle alone. One hour later a subplantar injection of 0.1 mL of 1% solution of carrageenan/sterile 0.9% saline was administered and the volume of the injected foot was measured with a displacement plethysmometer connected to a pressure transducer with a digital indicator. Three hours after the injection of the carrageenan, the volume of the foot was again measured. The average foot swelling in a group of drug-treated animals was compared with that of a group of placebo-treated animals and the percentage inhibition of edema was determined (Otterness and Bliven, Laboratory Models for Testing NSAIDs, in Non-steroidal Anti-Inflammatory Drugs, (J. Lombardino, ed. 1985)).

NC(=O)N(O)Cc1cc(-c2ccc(Cl)cc2)n(-c2ccc(S(N)(=O)=O)cc2)n1 [Example 1, N′-[[1-[4-(Aminosulfonyl)phenyl]-5-(4-chlorophenyl)-1H-pyrazol-3-yl]methyl]-N′-hydroxyurea]
IC50 (5-lipoxygenase (5-LO)): 12.3 µM
IC50 (COX-2): 6.6 µM
IC50 (COX-1): 53.5 µM

CN(O)C(=O)CCc1nc(-c2ccc(F)cc2)c(-c2ccc(S(C)(=O)=O)cc2)o1 [Example 2, 4-(4-Fluorophenyl)-N-hydroxy-N-methyl-5-[(4-methylsulfonyl)phenyl]-2-oxazolepropanamide]
IC50 (5-lipoxygenase (5-LO)): 0.05 µM
IC50 (COX-2): 5.1 µM
RAT PAW EDEMA % Inhibition @ 10 mg/kg body weight (carrageenan foot edema): 2%
IC50 (COX-1): > 100 µM

CN(O)C(=O)Cc1cc(-c2ccc(Cl)cc2)n(-c2ccc(S(N)(=O)=O)cc2)n1 [Example 3, [1-[4-(Aminosulfonyl)phenyl]-5-(4-chlorophenyl)-1H-pyrazol-3-yl]-N-hydroxy-N-methyl-ethanamide]
melting point: 110 to 135 °C (dec.)

NS(=O)(=O)c1ccc(-c2nc(CCCC(=O)NO)oc2-c2ccc(Cl)c(Cl)c2)cc1 [Example 4, 4-[(4-Aminosulfonyl)phenyl]-5-(3,4-dichlorophenyl)-N-hydroxy-2-oxazole-butanamide]
IC50 (COX-2): 0.3 µM
melting point: 165 to 169.7 °C
IC50 (COX-1): 12.5 µM
